In EP0513849B1, “Method of preparing transgenic Zea mays plants regenerated from protoplasts or protoplast-derived cells” (Novartis AG, priority 1987, dated 1988):

Tests used:
Zea mays protoplasts [1] = assay: Colony formation from Zea mays protoplasts with DMSO and O-acetyl-salicylic acid in the presence of 2,4-D (Example 20); format: cell-based; details: for number of formed colonies: no additions, 0.75 million protoplasts per ml, counted after 3 weeks
Description: (§1) The plates containing the protoplasts in agarose are placed in the dark at 26 °C. Within 14 days, cell colonies arise from the protoplasts. The agarose containing the colonies is transferred to the surface of a 9 cm diameter petri dish containing 30 ml of N6 medium with 2 mg/liter 2,4-D, solidified with 0.24% w/v Gelrite^R (2N6). The colonies are cultured to give callus. The callus is cultured further in the dark at 26 °C and callus pieces subcultured every 2 weeks onto fresh N6 medium containing 2 mg/liter 2,4-D (solidified with 0.24% w/v Gelrite^R).
Protoplasts are resuspended in the last step of example 3 in 6/7 strength KMC solution at 7.5 million per ml. The O-acetyl-salicylic acid is dissolved at 2.5 mg/ml in KM medium. The solution is filter sterilized. The O-acetyl-salicylic acid is then added to the culture medium immediately before use. Aliquots of protoplast suspension are placed in 6 cm diameter petri dishes at room temperature. 3 ml of KM medium containing 1.2% w/v SeaPlaque^R agarose, 2,4-D and O-acetyl salicylic acid is added so as to give the correct 2,4-D and O-acetyl-salicylic acid concentrations and a protoplast density of 0.5 million per ml. The agarose and protoplasts are mixed well, and the medium allowed to gel.
The protoplasts are prepared and plated at 0.75 million per ml as described in example 18, using 1 ml of medium per 3.5 cm diameter petri dish. O-acetyl-salicylic acid is included in the medium. The O-acetyl-salicylic acid is dissolved in DMSO and then added to the medium before plating of the protoplasts. To obtain a solution in DMSO, 1 g of O-acetyl-salicylic acid is dissolved in 10 ml DMSO, and added to 90 ml distilled water. The solution is then filter sterilized before use.
The dishes are cultured as described in example 10. After a period of 3 weeks, macroscopic colonies arising in the dishes are counted. […]

Zea mays protoplasts [2] = assay: Colony formation from cultured Zea mays protoplasts in the presence of plant growth regulators (auxins) (Example 21); format: cell-based; details: 0.54 million protoplasts per ml, counted after 3 weeks
Description: as §1
Protoplasts are resuspended in the last step of example 3 in 6/7 strength KMC solution at 5 million per ml.
Aliquots of protoplast suspension are placed in 6cm diameter petri dishes at room temperature. 2 ml of KM medium containing 1.2% w/v SeaPlaque^R agarose, and 2,4-D, Picloram, Dicamba or para-Chlorophenoxyacetic acid (pCPA) to give the correct plant growth regulator concentrations is added. The final protoplast density used is 0.54 million per ml. The agarose and protoplasts are mixed well, and the medium allowed to gel.
The dishes are cultured as described in example 10. After a period of 3 weeks, macroscopic colonies arising in the dishes are counted.

[3] = plant growth regulator concentration 0.1 mg/liter
[4] = plant growth regulator concentration 1 mg/liter
[5] = plant growth regulator concentration 10 mg/liter

SMILES | number of formed colonies (Zea mays protoplasts [1]; 2,4-D 0.1 mg/liter) | number of formed colonies (Zea mays protoplasts [1]; 2,4-D 0.3 mg/liter) | number of formed colonies (Zea mays protoplasts [1]; 2,4-D 1.0 mg/liter) | number of colonies formed (Zea mays protoplasts [2]; [3]) | number of colonies formed (Zea mays protoplasts [2]; [4]) | number of colonies formed (Zea mays protoplasts [2]; [5]) | colony forming efficiency (Zea mays protoplasts [1]; DMSO alone, 1% v/v) | effect on the stimulatory activity of O-acetyl-salicylic acid (Zea mays protoplasts [1]; O-acetyl-salicylic acid dissolved in DMSO)
O=C(O)COc1ccc(Cl)cc1Cl [2,4-D, 2,4-dichlorophenoxyacetic acid] | 1 | 2 | 45 | 140 | 0 | 0 |  | 
C[S+](C)[O-] [DMSO] |  |  |  |  |  |  | no significant increase or decrease | potentiates the stimulatory activity of the O-acetyl-salicylic acid
COc1c(Cl)ccc(Cl)c1C(=O)O [dicamba, 3,6-dichloro-2-methoxy benzoic acid] |  |  |  | 62 | 288 | 0 |  | 
O=C(O)COc1ccc(Cl)cc1 [pCPA, para-chlorophenoxyacetic acid] |  |  |  | 52 | 0 | 0 |  | 
